We go through one compound from patent publication US10722586B2, “Filmogenic compositions for topical anaesthetic bioadhesives—tabs, for controlled release of active principles and topical anaesthetic bioadhesives” (UNIVERSIDADE FEDERAL DE PELOTAS, priority 2014, dated 2020).

The series relates to cell line of mouse fibroblasts (NIH/3T3). Put plainly: Cytotoxicity test (MTT, ISO 10993) on NIH/3T3 fibroblasts. The format is cell-based. The settings on record: absorbance at 540 nm, mean (±SD). The procedure: The cytotoxicity of the products of the invention is evaluated with the cell line of mouse fibroblasts (NIH/3T3).
The test is performed according to ISO 10993 (2009). The cell suspension is plated at a concentration of 2×10^4 cells per well and delivered into a cell culture dish of 96 wells. Each well receives 200 μl DMEM (Dulbecco's Modified Eagle Medium) supplemented with 10% Fetal Bovine Serum. The plate is then incubated at 37° C. in an atmosphere containing 5% CO2 for 24 hours. In control wells, 200 μl DMEM (Dulbecco's Modified Eagle Medium) is supplemented with fetal bovine serum 10%. After removal of the test extracts, 200 μl PBS (phosphate buffered saline) and 20 μl of MTT (tetrazolium salt [3-(4,5-dimetltiazol-2-yl)-2,5-diphenyltetrazolium bromide] are added to each well. The plate is incubated in a room without light for 24 hours at 37° C. After that, MTT is aspirated and 200 μl dimethylsulfoxide (DMSO) is added to each well. Thereafter, absorbance at 540 nm is measured using a spectrophotometer and the results were analyzed statistically.
The data are tabulated and submitted to Kruskal-Wallis nonparametric statistical analysis and Tukey's complementary test (p<0.05).
The results of cytotoxicity testing are illustrated in FIG. 10.

In the case of `CCOC(=O)c1ccc(N)cc1` [Example P20, benzocaine], the “ABSORBANCE (540 nm)” value was 0.511 (±0.032)^A.
